Measurements from ChEMBL document CHEMBL2331252, “Facile one-pot synthesis of novel dispirooxindole-pyrrolidine derivatives and their antimicrobial and anticancer activity against A549 human lung adenocarcinoma cancer cell line” (Bioorg Med Chem Lett, 2013).
≈ marks a conversion by molar mass, not a printed value. Calls of active or inactive are those of the source. The calls are words filed in the database; no cut-off is given here.

What was measured:
Shigella flexneri [1] = assay: Antibacterial activity against Shigella flexneri MTCC 1457 after 24 hrs; format: functional; settings: MTCC 1457, 24 h
Salmonella typhimurium [2] = assay: Antibacterial activity against Salmonella typhimurium MTCC 1251 at 1 mg/disc after 24 hrs by disc diffusion method; format: functional, Salmonella enterica subsp. enterica serovar Typhimurium; settings: for inhibition: Salmonella enterica subsp. enterica serovar Typhimurium
Shigella flexneri [3] = assay: Antibacterial activity against Shigella flexneri MTCC 1457 at 1 mg/disc after 24 hrs by disc diffusion method; format: functional
Klebsiella pneumoniae [4] = assay: Antibacterial activity against Klebsiella pneumoniae MTCC 109 at 1 mg/disc after 24 hrs by disc diffusion method; format: functional
Salmonella typhimurium [5] = assay: Antibacterial activity against Salmonella typhimurium MTCC 1251 after 24 hrs; format: functional, Salmonella enterica subsp. enterica serovar Typhimurium; settings: Salmonella enterica, MTCC 1251, 24 h
Proteus vulgaris [6] = assay: Antibacterial activity against Proteus vulgaris MTCC 1771 after 24 hrs; format: functional
Candida albicans [7] = assay: Antifungal activity against Candida albicans MTCC 227 after 48 to 72 hrs; format: functional
A549 [8] = assay: Cytotoxicity against human A549 cells assessed as cell death at 50 ug/ml by MTT assay; format: functional
A549 [9] = assay: Cytotoxicity against human A549 cells assessed as cell death at 200 ug/ml by MTT assay; format: functional
Klebsiella aerogenes [10] = assay: Antibacterial activity against Enterobacter aerogenes MTCC 111 after 24 hrs; format: functional
A549 [11] = assay: Cytotoxicity against human A549 cells assessed as cell death at 100 ug/ml by MTT assay; format: functional
Klebsiella aerogenes [12] = assay: Antibacterial activity against Enterobacter aerogenes MTCC 111 at 1 mg/disc after 24 hrs by disc diffusion method; format: functional
Staphylococcus aureus [13] = assay: Antibacterial activity against methicillin-resistant Staphylococcus aureus at 1 mg/disc after 24 hrs by disc diffusion method; format: functional
Candida albicans [14] = assay: Antifungal activity against Candida albicans MTCC 227 at 1 mg/disc after 48 hrs by disc diffusion method; format: functional
Micrococcus luteus [15] = assay: Antibacterial activity against Micrococcus luteus MTCC 106 at 1 mg/disc after 24 hrs by disc diffusion method; format: functional
[16] = Antifungal activity against Malassezia pachydermatis at 1 mg/disc after 48 hrs by disc diffusion method; format: functional
Staphylococcus aureus [17] = assay: Antibacterial activity against Staphylococcus aureus MTCC 96 after 24 hrs; format: functional; settings: MTCC 96, 24 h
Micrococcus luteus [18] = assay: Antibacterial activity against Micrococcus luteus MTCC 106 after 24 hrs; format: functional; settings: MTCC 106, 24 h
Proteus vulgaris [19] = assay: Antibacterial activity against Proteus vulgaris MTCC 1771 at 1 mg/disc after 24 hrs by disc diffusion method; format: functional
Staphylococcus aureus [20] = assay: Antibacterial activity against Staphylococcus aureus MTCC 96 at 1 mg/disc after 24 hrs by disc diffusion method; format: functional
Klebsiella pneumoniae [21] = assay: Antibacterial activity against Klebsiella pneumoniae MTCC 109 after 24 hrs; format: functional; settings: MTCC 109, 24 h
Staphylococcus aureus [22] = assay: Antibacterial activity against methicillin-resistant Staphylococcus aureus after 24 hrs; format: functional

Compound	inhibition zone (IZ) (Salmonella typhimurium [2]) [mm]	inhibition zone (IZ) (Klebsiella pneumoniae [4]) [mm]	Activity (A549 [8]) [%]	Activity (A549 [9]) [%]	Activity (A549 [11]) [%]	inhibition (Klebsiella aerogenes [12])	inhibition zone (IZ) (Candida albicans [14]) [mm]	inhibition zone (IZ) (Micrococcus luteus [15]) [mm]	inhibition zone (IZ) (Proteus vulgaris [19]) [mm]	inhibition zone (IZ) (Staphylococcus aureus [20]) [mm]	inhibition (Shigella flexneri [3])	inhibition (Klebsiella pneumoniae [4])	inhibition (Staphylococcus aureus [13])	inhibition (Micrococcus luteus [15])	inhibition zone (IZ) [16] [mm]	inhibition (Proteus vulgaris [19])	other results
CN1C[C@](C#N)(C(=O)c2c[nH]c3ccccc23)[C@]2(C(=O)Nc3ccccc32)[C@@]12C(=O)Nc1ccc(Cl)cc12	8	14	3.58	13.15	7.38	inactive	9	10	13	9							MIC (Shigella flexneri [1]): 1000 µg/mL (≈ 1920 µM); inhibition zone (IZ) (Shigella flexneri [3]): 11 mm; MIC (Salmonella typhimurium [5]): 500 µg/mL (≈ 958 µM); MIC (Proteus vulgaris [6]; MTCC 1771, 24 h): 250 µg/mL (≈ 479 µM); MIC (Candida albicans [7]): 500 µg/mL (≈ 958 µM); MIC (Klebsiella aerogenes [10]): inactive; inhibition zone (IZ) (Staphylococcus aureus [13]): 8 mm; inhibition [16]: inactive; MIC (Staphylococcus aureus [17]): 500 µg/mL (≈ 958 µM); MIC (Micrococcus luteus [18]): 1000 µg/mL (≈ 1920 µM); MIC (Klebsiella pneumoniae [21]): 125 µg/mL (≈ 239 µM); MIC (Staphylococcus aureus [22]): 500 µg/mL (≈ 958 µM)
CN[C@@H]1[C@H](O[C@H]2[C@H](O[C@H]3[C@H](O)[C@@H](O)[C@H](N=C(N)N)[C@@H](O)[C@@H]3N=C(N)N)O[C@@H](C)[C@]2(O)C=O)O[C@@H](CO)[C@H](O)[C@H]1O [STREPTOMYCIN]	18	20						26	30	14							MIC (Shigella flexneri [1]): 6.25 µg/mL (≈ 10.7 µM); inhibition zone (IZ) (Shigella flexneri [3]): 30 mm; MIC (Salmonella typhimurium [5]): 30 µg/mL (≈ 51.6 µM); MIC (Proteus vulgaris [6]): inactive; MIC (Klebsiella aerogenes [10]; MTCC 111, 24 h): 25 µg/mL (≈ 43 µM); inhibition zone (IZ) (Klebsiella aerogenes [12]): 22 mm; inhibition zone (IZ) (Staphylococcus aureus [13]): 30 mm; MIC (Staphylococcus aureus [17]): 6.25 µg/mL (≈ 10.7 µM); MIC (Micrococcus luteus [18]): 6.25 µg/mL (≈ 10.7 µM); MIC (Klebsiella pneumoniae [21]): 6.25 µg/mL (≈ 10.7 µM); MIC (Staphylococcus aureus [22]): 6.25 µg/mL (≈ 10.7 µM)
CCOC(=O)CN1C(=O)[C@@]2(c3ccccc31)N(C)C[C@](C#N)(C(=O)c1c[nH]c3ccccc13)[C@]21C(=O)Nc2ccccc21			11.04	27.78	21.25	inactive	9		8	9	inactive	inactive	inactive	inactive	11		inhibition (Salmonella typhimurium [2]): inactive
CN1C[C@](C#N)(C(=O)c2c[nH]c3ccccc23)[C@]2(C(=O)Nc3ccccc32)[C@@]12C(=O)Nc1ccc([N+](=O)[O-])cc12	8		18.37	55.26	36.65		9				inactive	inactive	inactive	inactive		inactive	inhibition zone (IZ) (Klebsiella aerogenes [12]): 8 mm; inhibition [16]: inactive; inhibition (Staphylococcus aureus [20]): inactive
CN1C(=O)[C@@]2(c3cc([N+](=O)[O-])ccc31)N(C)C[C@](C#N)(C(=O)c1c[nH]c3ccccc13)[C@]21C(=O)Nc2ccccc21	8		9.27	60.22	24.36	inactive	9	7			inactive	inactive	inactive		12	inactive	inhibition (Staphylococcus aureus [20]): inactive
CC(=O)N1CCN(c2ccc(OCC3COC(Cn4ccnc4)(c4ccc(Cl)cc4Cl)O3)cc2)CC1 (stereo not drawn) [KETOCONAZOLE]							28								26		MIC (Candida albicans [7]): 25 µg/mL (≈ 47 µM)
CN1C[C@](C#N)(C(=O)c2c[nH]c3ccccc23)[C@]2(C(=O)Nc3ccccc32)[C@@]12C(=O)N(c1ccccc1)c1ccccc12		9	39.41	47.89	41.58	inactive	13			7	inactive		inactive	inactive	14	inactive	inhibition (Salmonella typhimurium [2]): inactive
